One data set relates to HL-60. Nature of the data set: Cytotoxicity against human HL60 cells assessed as decrease in cell number after 24 hrs by MTT assay. Particulars: HL-60, 24 h. The format is functional, cell-based. (Formazan colour is commonly taken as a measure of viable cells.)
Another data set relates to U-937. Nature of the data set: Cytotoxicity against human U937 cells assessed as decrease in cell number after 24 hrs by MTT assay. The note with it: U-937, 24 h. The format is functional, cell-based.
Another data set deals with Staphylococcus aureus. As to the kind of experiment: Antibacterial activity against Staphylococcus aureus by paper disc assay method. The format is functional, organism-based.
Another data set concerns Bacillus subtilis. Nature of the data set: Antibacterial activity against Bacillus subtilis by paper disc assay method. Type of data set: functional, organism-based.
The subject of the next data set is Pseudomonas syringae. Nature of the data set: Antibacterial activity against Pseudomonas syringae by paper disc assay method. The format is functional, organism-based.
The next data set deals with Escherichia coli. As to the kind of experiment: Antibacterial activity against Escherichia coli by paper disc assay method. Type of data set: functional, organism-based.
The next data set relates to Artemia. As to the kind of experiment: Toxicity in brine shrimps. Type of data set: organism-based. Particulars: in vivo.

We go through 24 molecules from ChEMBL document CHEMBL2046309, “Semi-synthesis and bio-evaluation of polybrominated diphenyl ethers from the sponge Dysidea herbacea” (Bioorg Med Chem Lett, 2012).

Converted amounts (≈) assume the structure as drawn. The source made the active and inactive calls. The rule behind the calls is not given here.

Usually IC50 stands for the concentration that gives 50% inhibition. Take `COc1ccccc1N1CCN(CCCCCOc2c(Br)cc(Br)cc2Oc2ccc(Br)cc2Br)CC1`: the figures for the IC50 in the data set on HL-60 and with U-937 were 32.2 µg/mL (≈ 42.2 µM) and 37.5 µg/mL (≈ 49.2 µM), respectively.
On to `CN1CCN(CCCCCOc2c(Br)cc(Br)cc2Oc2ccc(Br)cc2Br)CC1`, for which the results for the IC50 with HL-60 and in the data set on U-937 were 48.3 µg/mL (≈ 72.1 µM) and 49.1 µg/mL (≈ 73.3 µM), respectively.
The corresponding values for `Brc1ccc(Oc2cc(Br)cc(Br)c2OCCCCCN2CCOCC2)c(Br)c1` are 50.5 µg/mL (≈ 76.9 µM) and 39.8 µg/mL (≈ 60.6 µM).
The corresponding values for `Brc1ccc(Oc2cc(Br)cc(Br)c2OCCCCCN2CCN(c3ccccc3)CC2)c(Br)c1` are 41.6 µg/mL (≈ 56.8 µM) and 42.5 µg/mL (≈ 58 µM).
The corresponding values for `C#CCOc1c(Br)cc(Br)cc1Oc1ccc(Br)cc1Br` are 29.7 µg/mL (≈ 55 µM) and 29.5 µg/mL (≈ 54.6 µM).
As to `CC(C)(C)C(=O)C(C#N)Oc1c(Br)cc(Br)cc1Oc1ccc(Br)cc1Br` (stereo not drawn), the IC50 came out at 29.2 µg/mL (≈ 46.7 µM) with HL-60 and 32.5 µg/mL (≈ 52 µM) with U-937.
The corresponding values for `BrCCCCCCOc1c(Br)cc(Br)cc1Oc1ccc(Br)cc1Br` are 37.8 µg/mL (≈ 56.9 µM) and 33.8 µg/mL (≈ 50.8 µM).
For `COc1cc([C@@H]2c3cc4c(cc3[C@@H](O[C@@H]3O[C@@H]5CO[C@@H](C)O[C@H]5[C@H](O)[C@H]3O)[C@H]3COC(=O)[C@H]23)OCO4)cc(OC)c1O` [ETOPOSIDE], the IC50 in the data set with HL-60 was found to be 1.1 µg/mL (≈ 1.87 µM).
Regarding `BrCCCCCOc1c(Br)cc(Br)cc1Oc1ccc(Br)cc1Br`, the IC50 came to 25.7 µg/mL (≈ 39.5 µM) with HL-60 and 29.5 µg/mL (≈ 45.3 µM) in the data set with U-937.
As a reminder, the LC50 is the concentration lethal to half of the exposed cells or organisms. On to `CC(=O)Oc1c(Br)cc(Br)cc1Oc1ccc(Br)cc1Br`, for which the half-inhibitory concentration (IC50) in the data set on HL-60 was 29.9 µg/mL (≈ 55 µM); in the data set on U-937, 32.3 µg/mL (≈ 59.4 µM). Further, the result in the data set on Staphylococcus aureus, with Bacillus subtilis, with Pseudomonas syringae and with Escherichia coli was Active. In the data set on Artemia, this molecule showed a median lethal concentration (LC50) of 23.28 ppm.
Consider `CC(C)(C)OC(=O)N1CCN(CCCCCOc2c(Br)cc(Br)cc2Oc2ccc(Br)cc2Br)CC1`, for which the results for the IC50 with HL-60 and with U-937 were 32.1 µg/mL (≈ 42.5 µM) and 35.5 µg/mL (≈ 46.9 µM), respectively.
For `Brc1ccc(Oc2cc(Br)cc(Br)c2OCCCCCN2CCN(C/C=C/c3ccccc3)CC2)c(Br)c1`, in that order: 47.2 µg/mL (≈ 61.1 µM) and 32.7 µg/mL (≈ 42.3 µM).
The corresponding values for `Cc1ccc(S(=O)(=O)n2nc(N3CCN(CCCCCOc4c(Br)cc(Br)cc4Oc4ccc(Br)cc4Br)CC3)c3cc([N+](=O)[O-])ccc32)cc1` are 52.5 µg/mL (≈ 54 µM) and 68.5 µg/mL (≈ 70.5 µM).
For `BrCCCOc1c(Br)cc(Br)cc1Oc1ccc(Br)cc1Br`, in that order: 29.9 µg/mL (≈ 48 µM) and 30.3 µg/mL (≈ 48.7 µM).
For the molecule `CC(C)(C)OC(=O)N1CCCN(CCCCCOc2c(Br)cc(Br)cc2Oc2ccc(Br)cc2Br)CC1`, the half-maximal inhibitory concentration (IC50) worked out at 44.8 µg/mL (≈ 58.2 µM) with HL-60 and 39.5 µg/mL (≈ 51.3 µM) with U-937.
For `BrCCCCOc1c(Br)cc(Br)cc1Oc1ccc(Br)cc1Br`, in that order: 25.9 µg/mL (≈ 40.7 µM) and 29 µg/mL (≈ 45.5 µM).
For `Brc1ccc(Oc2cc(Br)cc(Br)c2OCc2ccccc2)c(Br)c1`, in that order: 27.9 µg/mL (≈ 47.1 µM) and 29 µg/mL (≈ 49 µM).
Turning to `COc1c(Br)cc(Br)cc1Oc1ccc(Br)cc1Br`, the results for the IC50 in the data set on HL-60 and in the data set with U-937 were 28.2 µg/mL (≈ 54.7 µM) and 34.5 µg/mL (≈ 66.9 µM), respectively. Also, the outcome in the data set on Staphylococcus aureus, in the data set with Bacillus subtilis, with Pseudomonas syringae and in the data set on Escherichia coli was Active. In the data set on Artemia, this molecule had a median lethal concentration (LC50) of 19.28 ppm.
As for `CCOC(=O)C(C)Oc1c(Br)cc(Br)cc1Oc1ccc(Br)cc1Br` (stereo not drawn), the half-maximal inhibitory concentration (IC50) with HL-60 is 35.7 µg/mL (≈ 59.3 µM); with U-937, 39.5 µg/mL (≈ 65.6 µM).
For `C=CCOc1c(Br)cc(Br)cc1Oc1ccc(Br)cc1Br`, in that order: 27.9 µg/mL (≈ 51.5 µM) and 29 µg/mL (≈ 53.5 µM).
For `BrCCOc1c(Br)cc(Br)cc1Oc1ccc(Br)cc1Br`, in that order: 26.2 µg/mL (≈ 43 µM) and 32.5 µg/mL (≈ 53.4 µM).
For `OCCOc1c(Br)cc(Br)cc1Oc1ccc(Br)cc1Br`, in that order: 28.2 µg/mL (≈ 51.7 µM) and 34.5 µg/mL (≈ 63.2 µM).
For `OCCCOc1c(Br)cc(Br)cc1Oc1ccc(Br)cc1Br`, the results for the IC50 in the data set on HL-60 and with U-937 were 29.9 µg/mL (≈ 53.4 µM) and 32.3 µg/mL (≈ 57.7 µM), respectively.
On to `Oc1c(Br)cc(Br)cc1Oc1ccc(Br)cc1Br`, for which the IC50 is 19.3 µg/mL (≈ 38.5 µM) in the data set on HL-60 and 22.5 µg/mL (≈ 44.8 µM) in the data set on U-937. The LC50 in the data set on Artemia turned out to be 12.8 ppm.
